Results: paper PMC2359919, “Molecular targeting of retinoic acid metabolism in neuroblastoma: the role of the CYP26 inhibitor R116010 in vitro and in vivo” (British Journal of Cancer, 2007)

Experiments:
[1] = Effect of R116010 on retinoid concentrations (plasma, liver, tumour) in an SH-SY5Y xenograft model, LC/MS; assay type: in vivo, CD-1 nude mice; settings: female, CD-1 nu/nu (athymic nude), mouse, tumour (SH-SY5Y xenograft), oral; 13cisRA 100 mg kg^−1 alone; SH-SY5Y tumour; 6 h; read-out: Tumour 13cisRA levels, control animals
Procedure: (§1) All in vivo experiments were approved by the relevant institutional animal welfare committees, and performed according to national law. Female athymic nude mice (CD-1 nu/nu, Charles River) used for antitumour studies were maintained and handled in isolators, under specific pathogen-free conditions, at 24°C with a 12 h light, 12 h dark cycle. Tumours were generated by implantation of SH-SY5Y cells subcutaneously (s.c.) into one flank of CD-1 nude mice (1 × 10^7 cells per animal).
(§2) Treatments began when the tumours were between 7 and 10 mm in length and breadth. Retinoids and R116010 were initially dissolved in DMSO before 10- or 20-fold dilutions in PBS, respectively. For pharmacokinetic studies, the animals were dosed with ATRA or 13cisRA (each 100 mg kg^−1) orally for 0.5, 2 and 6 h. For metabolism studies, animals were treated with R116010 orally at doses of 1.25 or 2.5 mg kg^−1 either immediately before the retinoid being studied, or up to three times (over 1–2 days) before dosing with the retinoid. At termination of experiments, animals were bled under terminal anaesthesia then killed by cervical dislocation. Plasma was immediately removed from the blood by centrifugation at 1000 g for 5 min and snap-frozen in liquid nitrogen in amber Eppendorfs. Tumour and liver samples were removed and snap-frozen, wrapped in foil, in liquid nitrogen.
(§3) Cell pellets obtained from retinoid incubations were re-suspended in 2 ml cell culture medium and disrupted by passing the samples several times through a syringe and hypodermic needle (25G × 1 inches, 0.5 mm × 25 mm; Terumo, Somerset, NJ, USA). Tumour and liver tissues were re-suspended in PBS and homogenised (T25 homogeniser, IKA Laboratories, Staufen, Germany). Retinoids were extracted as described previously ([Veal et al, 2002]; [Armstrong et al, 2005b]). Samples were reconstituted in 200 μl mobile phase A (n-hexane:dichloromethane:propan-2-ol, 400 : 1 : 0.27) and analysed by normal-phase HPLC as described previously ([Veal et al, 2002]). For LC/MS analysis, samples were reconstituted in 200 μl mobile phase A (50% acetonitrile, 50% (0.2%) acetic acid, v v^−1).
(§4) Resolution of retinoids was performed with a Luna C18(2) column (3 μm, 50 mm × 2 mm) using a Perkin Elmer LC (Beaconsfield, UK) system, consisting of a vacuum degasser, two series 200 pumps, a thermostatically controlled series 200 autosampler and a Waters 2487 UV absorbance detector. Retinoic isomers and metabolites were separated by gradient reversed-phase chromatography. An injection volume of 20 μl with a flow rate of 0.2 ml min^−1 was used with mobile phase A (50% acetonitrile, 50% (0.2%) acetic acid, v v^−1) and mobile phase B (acetonitrile, 0.1% acetic acid, v v^−1). Linear gradients were employed between the specified times as follows: 0, 100% A; 5 min, 100% A; 15 min, 100% B; 20 min, 100% B; 23 min, 100% A; 35 min, 100% A. An Applied Biosystems (Warrington, UK) API-2000 LC/MS/MS triple Q (quadrupole) mass spectrometer with electrospray ionisation source, controlled by Analyst software, was operated in single quadrupole negative mode for the detection of compounds.

neuroblastoma cell lines = test system: neuroblastoma cell lines; set-up: method as in Villablanca et al, 1995; settings: ref Villablanca et al, 1995; cited from earlier work
[2] = test system: SH-SY5Y, NGP, SH-EP and GIMEN cells; set-up: method as in Armstrong et al, 2005b; settings: SH-SY5Y neuroblastoma cells; ref Armstrong et al, 2005b; cited from earlier work
RA metabolism = test: Effect of R116010 on retinoid concentrations (plasma, liver, tumour) in an SH-SY5Y xenograft model, LC/MS; assay type: in vivo, CD-1 nude mice
Procedure: as §1, §2, §3, §4

MYCN = MYCN mRNA expression in MYCN-amplified NGP cells, real-time PCR; assay type: cell-based, human
Procedure: SH-SY5Y, SH-EP (N- and S-type cells respectively derived from the parental line SK-N-SH), LAN6, IMR-32, NGP and GIMEN neuroblastoma cell lines were cultured routinely in RPMI 1640 medium containing fetal calf serum (10%) and L-glutamine (2 mM). Cells were grown at 37°C in a humidified incubator containing 5% CO2.
13-cis-Retinoic acid and ATRA were dissolved in DMSO and diluted in cell culture medium to obtain final concentrations of 0.1–10 μM. The final concentration of DMSO in all cases was <0.2%. All experiments were performed in dim light and tubes containing retinoids were wrapped in aluminium foil.
RNA was reverse-transcribed using Promega's Reverse Transcription System according to the manufacturer's instructions, using random hexamer primers. Real-time PCR was performed on 20 ng cDNA using TaqMan gene expression products for human CYP26A1, CYP26B1, CRABPII, RARβ and MYCN in combination with the TaqMan Universal PCR master mix (Applied Biosystems, Warrington, UK). […] As internal standard, β-actin was measured simultaneously using the endogenous control assay provided by Applied Biosystems. […] Standard curves were generated from serial dilutions of cDNA prepared from cells treated with ATRA (1 μM) and the data were analysed using the GeneAmp Sequence Detection System software. CYP26C1 expression was analysed as described previously ([Taimi et al, 2004]).

[3] = test system: mouse mammary carcinoma model; set-up: method as in Van Heusden et al, 2002; settings: ref Van Heusden et al, 2002; cited from earlier work
[4] = 13cisRA 100 mg kg^−1 with increasing doses of R116010, 6 h
[5] = ATRA-treated mice (100 mg kg^−1) with R116010, 6 h

CC1=C(/C=C/C(C)=C/C=C/C(C)=C\C(=O)O)C(C)(C)CCC1 [13cisRA, 13-cis-retinoic acid]
concentration at 6 h [1]: 220 ± 40 ng/g | Concentration effective against neuroblastoma cell lines in vitro (neuroblastoma cell lines): 5 µM

C[C@@H]([C@H](c1ccc(Nc2nc3ccccc3s2)cc1)n1ccnc1)N(C)C [R116010]
Inhibition of ATRA metabolism [2]: inhibits ATRA metabolism | Increase in 13cisRA plasma concentration (RA metabolism; 13cisRA 100 mg kg^−1 after four doses of R116010 at 2.5 mg kg^−1 vs 13cisRA alone, 6 h): ≤ 4.6 fold | Effect on 13cisRA plasma concentrations (RA metabolism; 13cisRA 100 mg kg^−1 with increasing doses of R116010 (1.25; 2.5 mg kg^−1 x1, x2, x4) vs retinoid alone, 6 h): significant increases | Effect on plasma 13cis-4-oxo-RA concentrations (RA metabolism; [4]): no significant dose-dependent effect | Effect on plasma AT-4-oxo-RA concentrations (RA metabolism; [4]): apparent linear increase | Effect on ATRA plasma concentrations (RA metabolism; 13cisRA 100 mg kg^−1 with increasing doses of R116010 vs retinoid alone, 6 h): significant increases | Effect on liver ATRA levels (RA metabolism; 13cisRA 100 mg kg^−1 with one and two doses of 2.5 mg kg^−1 R116010, 6 h): increased slightly | Tumour 13cisRA levels with R116010 (RA metabolism; 13cisRA 100 mg kg^−1 with single dose R116010 at 2.5 mg kg^−1, SH-SY5Y tumour, 6 h): 0.59 ± 0.07 µg/g | Effect on levels of the 4-oxo-RA metabolites in tumour (RA metabolism; 13cisRA or ATRA in combination with R116010 vs retinoid alone): no significant differences | Effect on levels of ATRA in tumour samples (RA metabolism; 13cisRA-treated mice with R116010): not significantly affected | Increase in plasma ATRA concentrations (RA metabolism; ATRA 100 mg kg^−1 after four doses of R116010 at 2.5 mg kg^−1 vs ATRA alone, 6 h): ≤ 2.3 fold | Effect on liver 13cisRA or ATRA levels (RA metabolism; ATRA 100 mg kg^−1 in combination with R116010, 6 h): No significant increases | Effect on liver 13cis-4-oxo-RA and AT-4-oxo-RA levels (RA metabolism; ATRA 100 mg kg^−1 in combination with R116010 or after R116010 pretreatment, 6 h): significant decreases | Effect on plasma 13cisRA concentrations (RA metabolism; [5]): marginal | Effect on plasma AT-4-oxo-RA levels (RA metabolism; [5]): no effect | Effect on liver 13cisRA levels (RA metabolism; R116010 before 13cisRA 100 mg kg^−1, 6 h): not associated with 13cisRA levels being different from control | Effect on liver 13cis-4-oxo-RA and AT-4-oxo-RA concentrations (RA metabolism; R116010 before 13cisRA 100 mg kg^−1, all conditions, 6 h): significantly lower levels | Effect on levels of retinoids in tumour tissue (RA metabolism; R116010 before ATRA): no significant differences | Effect on downregulation of MYCN expression by ATRA or 13cisRA (MYCN; ATRA or 13cisRA 0.1 μM with R116010 1 μM vs retinoid alone): enhanced | Effect on MYCN expression, R116010 alone (MYCN; R116010 alone (1 μM)): small but significant increase | Antitumour activity as a single agent [3]: exhibits antitumour activity
